Experimental data taken from PubChem BioAssay AID1949 (Southern Research Institute, 2009).
Values after ≈ are worked out from the molar mass of the structure shown. Results filed as inconclusive are left out. Active and inactive are the calls of the source. How the calls were made is not given here.

System: M. tuberculosis H37Rv growth inhibition
Assay: Confirmatory growth inhibition assay against Mycobacterium tuberculosis H37Rv, potency (AID 1949);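 further: bacteria grown 7 days with compound before Alamar blue readout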

Structure (SMILES)	IC50
Cc1ccc(C(=O)NCCC2=CCCCC2)cc1I	2.92 µg/mL (≈ 7.91 µM)
CCc1ccc(Oc2nc([N+](=O)[O-])nn2C)cc1	1.13 µg/mL (≈ 4.55 µM)
O=[N+]([O-])c1cc(CN2CCN(c3ccccc3)CC2)c(O)c2ncccc12	6.09 µg/mL (≈ 16.7 µM)
CN(C)c1ccc(C(O)(c2ccc(N(C)C)cc2)c2ccc(N(C)C)cc2)cc1	0.6 µg/mL (≈ 1.54 µM)
COC(=O)c1ccc2c(=O)n(-c3ccccc3)c(SCc3ccccc3)nc2c1	22.6 µg/mL (≈ 56.2 µM)
COc1ccc2nc(NC(=O)C(Sc3ccccc3)c3ccccc3)sc2c1 (stereo not drawn)	4.87 µg/mL (≈ 12 µM)
CCOC(=O)N1CCN(CC(O)COc2ccc(C3CCCCC3)cc2)CC1 (stereo not drawn)	3.69 µg/mL (≈ 9.45 µM)
O=C(Nc1nnc(C2CCCCC2)s1)c1sc2ccccc2c1Cl	0.37 µg/mL (≈ 0.979 µM)
COc1ccc(C2CC(=O)C3=C(C2)NC(C)=C(C(=O)Nc2ccccc2C)C3c2coc3ccc(C)cc3c2=O)cc1OC (stereo not drawn)	3.7 µg/mL (≈ 6.26 µM)
CC(C)OC(=O)C(C)Oc1ccc2c(-c3ccccc3)cc(=O)oc2c1 (stereo not drawn)	1.63 µg/mL (≈ 4.63 µM)
O=C(c1ccc2ccccc2c1)N(C1CCCCC1)C1CCCCC1	43 µg/mL (≈ 128 µM)
O=C(c1cccc(Cl)c1)N1N=C(c2ccc(Cl)cc2)CC1(O)C(F)(F)F (stereo not drawn)	3.82 µg/mL (≈ 9.47 µM)
O=C(CCNc1ccc(Cl)c(C(F)(F)F)c1)c1cccs1	3.17 µg/mL (≈ 9.5 µM)
Cc1nc2ccc(C(=O)OCc3nnc(-c4ccccc4)o3)cc2nc1C	2.98 µg/mL (≈ 8.27 µM)
CC(CCc1ccccc1)NC(=O)c1ccc(Cl)cc1[N+](=O)[O-] (stereo not drawn)	3.7 µg/mL (≈ 11.1 µM)
CCN(c1ccccc1)c1ccc([N+](=O)[O-])c2nonc12	0.17 µg/mL (≈ 0.598 µM)
CC12CCC(C(=O)Oc3cccc4cccnc34)(CC1=O)C2(C)C (stereo not drawn)	1.57 µg/mL (≈ 4.85 µM)
O=C(Nc1cccnc1)c1ccc2c(c1)C1C3CCC(C3)C1C(c1ccccc1)N2 (stereo not drawn)	37.5 µg/mL (≈ 94.8 µM)
CCOc1ccc(Nc2cc(C)nc3ccc(C(=O)OC)cc23)cc1	3.71 µg/mL (≈ 11 µM)
O=C(CCNc1ccc(F)cc1)c1ccco1	5.39 µg/mL (≈ 23.1 µM)

Structure (SMILES)	IC50
O=C(Oc1ccccc1)c1cccc(COC(=O)c2cc3ccccc3oc2=O)c1	15.8 µg/mL (≈ 39.5 µM)
Cc1ccc(Cl)cc1NC(=O)CC(O)(C(F)(F)F)C(F)(F)F	7.04 µg/mL (≈ 20.1 µM)
CCN1CCN(c2ccc(NC(=O)c3cc4ccccc4cc3OC)cc2Cl)CC1	23.9 µg/mL (≈ 56.5 µM)
C/C(=N/N=C1\NC(=O)C(Cc2ccc(F)cc2)S1)c1ccc(C)cc1 (stereo not drawn)	> 50 µg/mL (inactive)
CC(=O)c1ccc(NC(=O)NC(C)C23CC4CC(CC(C4)C2)C3)cc1 (stereo not drawn)	19 µg/mL (≈ 55.8 µM)
Oc1ccccc1CNCCC12CC3CC(CC(C3)C1)C2	> 50 µg/mL (inactive)
COc1ccc(NC(=S)Nc2cccc(C(F)(F)F)c2)c([N+](=O)[O-])c1	23.3 µg/mL (≈ 62.9 µM)
CCCc1cc(C(N)=O)c(NC(=O)c2ccoc2C)s1	4.4 µg/mL (≈ 15 µM)
Cc1cc(-n2c(C)cc(/C=C3\NC(=O)NC3=O)c2C)ccc1Br	8.38 µg/mL (≈ 22.4 µM)
C=CCn1c(NCc2cccc3ccccc23)nc2ccccc21	3.16 µg/mL (≈ 10.1 µM)
c1ccc(CCNc2nc(-c3ccccn3)cs2)cc1	0.4 µg/mL (≈ 1.42 µM)
O=C(CC(O)(C(F)(F)F)C(F)(F)F)Nc1cccc(C(F)(F)F)c1	3.59 µg/mL (≈ 9.72 µM)
CCCCC(=O)Nc1ccc(C(=O)N2CCN(c3cccc(C(F)(F)F)c3)CC2)cc1	9.86 µg/mL (≈ 22.7 µM)
Cn1nc([N+](=O)[O-])nc1Sc1nnc(-c2cccnc2)o1	2.49 µg/mL (≈ 8.16 µM)
O=C(Nc1ccccc1-c1ccccc1)C(Cl)(Cl)Cl	2.44 µg/mL (≈ 7.76 µM)
CCOC(=O)COc1ccc2c(=O)c(Oc3ccccc3Cl)coc2c1	2.08 µg/mL (≈ 5.55 µM)
Cc1ccc(-c2nnc(N3CCN(C(=O)c4ccc(Cl)cc4)CC3)c3ccccc23)cc1	3.65 µg/mL (≈ 8.24 µM)
O=C(NCCc1c[nH]c2ccccc12)C(Cl)Cl	2.63 µg/mL (≈ 9.7 µM)
CCOc1ccc(-c2[nH]ncc2-c2ccccc2)c(O)c1C	4.39 µg/mL (≈ 14.9 µM)
Cc1ccc(OCC(=O)c2ccccc2)cc1C	4.92 µg/mL (≈ 20.5 µM)

Structure (SMILES)	IC50
Cc1c(Cl)ccc(OCCCN2CCCC(C)C2)c1C (stereo not drawn)	3.16 µg/mL (≈ 10.7 µM)
CN(C)CCCNc1nn2c(=O)c3c(-c4ccc(Cl)cc4)csc3nc2c2ccccc12	35.1 µg/mL (≈ 75.5 µM)
O=C(Nc1ccc(Cl)cc1)NC1CC2CCC1C2 (stereo not drawn)	0.72 µg/mL (≈ 2.72 µM)
CN1CCN(c2ccc(NC(=O)c3sc4ccccc4c3Cl)cc2)CC1	> 50 µg/mL (inactive)
COc1ccc(C(=O)CCNc2cccc(C)c2)cc1	8.33 µg/mL (≈ 30.9 µM)
C=CCc1ccccc1OCCCCn1ccnc1	3.93 µg/mL (≈ 15.3 µM)
O=C(COc1ccc(Br)cc1)Nc1ccccc1F	29.5 µg/mL (≈ 91.1 µM)
C#CCSc1nnc(-c2ccc(Br)cc2)o1	0.94 µg/mL (≈ 3.18 µM)
CCOC(=O)C(C)Oc1noc2nc(-c3ccccc3)ccc12 (stereo not drawn)	3.92 µg/mL (≈ 12.6 µM)
CC(=O)c1ccc(NC(=O)CSc2ccc(F)cc2)cc1	7.95 µg/mL (≈ 26.2 µM)
CSc1ncc(C(=O)NCc2ccco2)cn1	3.04 µg/mL (≈ 12.2 µM)
COC(=O)c1ccc(N2C(=O)CC(N(CCc3ccccc3)C(=S)Nc3ccccc3)C2=O)cc1 (stereo not drawn)	2.77 µg/mL (≈ 5.68 µM)
CCn1nnc(NC(=O)c2sc3ccccc3c2Cl)n1	3.02 µg/mL (≈ 9.81 µM)
COc1ccc(F)cc1CN1CCN(c2ncnc3scc(-c4ccc(F)cc4)c23)CC1	> 50 µg/mL (inactive)
COc1ccc(C(=O)C(CN2CCCCC2)c2ccccc2)cc1 (stereo not drawn)	3.15 µg/mL (≈ 9.74 µM)
COc1cccc(NC(=O)c2c(NC(=O)c3cccnc3)sc3c2CCC3)c1	0.1 µg/mL (≈ 0.254 µM)
COC(=O)C(C)Oc1ccc2c3c(c(=O)oc2c1)CCCCC3 (stereo not drawn)	> 50 µg/mL (inactive)
Cc1ccc(/C=C/[N+](=O)[O-])cc1Br	239 µg/mL (≈ 987 µM)
